Experimental data taken from PubChem BioAssay (NCI).
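These data come from cells grown in 96-well plates and exposed to compound for 48 hours at five concentrations. GI50 marks 50% less growth. TGI is the concentration that stops growth completely.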

Experiments:
Experiment in all cases: NCI anticancer screen, dose series, 48 h
[1] = tested on: SK-MEL-5 melanoma
[2] = tested on: 786-0 renal
[3] = tested on: M14 melanoma
[4] = tested on: NCI-H460 lung
[5] = tested on: HS 578T breast
[6] = tested on: UACC-257 melanoma
[7] = tested on: BT-549 breast
[8] = tested on: RXF 393 renal
[9] = tested on: HT29 colon
[10] = tested on: SK-OV-3 ovarian
[11] = tested on: SF-268 CNS
[12] = tested on: LOX IMVI melanoma
[13] = tested on: K-562 leukemia
[14] = tested on: SK-MEL-2 melanoma
[15] = tested on: TK-10 renal
[16] = tested on: NCI-H23 lung
[17] = tested on: HOP-62 NSCLC
[18] = tested on: EKVX NSCLC
[19] = tested on: KM12 colon
[20] = tested on: HCT-15 colon
[21] = tested on: U251 CNS
[22] = tested on: NCI-H226 lung
[23] = tested on: SF-295 CNS
[24] = tested on: SN12C renal
[25] = tested on: MCF7 breast
[26] = tested on: UO-31 renal
[27] = tested on: IGROV1 ovarian
[28] = tested on: HCT-116 colon
[29] = tested on: HCC-2998 colon
[30] = tested on: SF-539 CNS
[31] = tested on: NCI-H522 lung
[32] = tested on: SR leukemia
[33] = tested on: SK-MEL-28 melanoma
[34] = tested on: CAKI-1 renal
[35] = tested on: OVCAR-8 ovarian
[36] = tested on: SNB-19 CNS
[37] = tested on: MOLT-4 leukemia
[38] = tested on: SW-620 colon
[39] = tested on: OVCAR-4 ovarian
[40] = tested on: DU-145 prostate
[41] = tested on: UACC-62 melanoma
[42] = tested on: MDA-MB-435
[43] = tested on: COLO 205 colon
[44] = tested on: MDA-MB-231 breast
[45] = tested on: A498 renal
[46] = tested on: PC-3 prostate
[47] = tested on: ACHN renal
[48] = tested on: RPMI-8226 leukemia
[49] = tested on: OVCAR-5 ovarian
[50] = tested on: A549 NSCLC
[51] = tested on: OVCAR-3 ovarian
[52] = tested on: NCI/ADR-RES ovarian
[53] = tested on: T-47D breast

With `CCSc1nc(N=Cc2cccs2)c2cn[nH]c2n1` the GI50 [1] was 7.35 µM, the TGI [1] was 38.1 µM and the GI50 [2] was 33.4 µM. It also gave a TGI [2] of over 100 µM, a GI50 [3] of 14.8 µM and a TGI [3] of 28 µM. It also gave a GI50 [4] of 14.5 µM, a TGI [4] of over 100 µM and a GI50 [5] of 16.2 µM. The TGI [5] was over 100 µM, the GI50 [6] was 61 µM and the TGI [6] was over 100 µM. For the same compound, the GI50 [7] was over 100 µM, the TGI [7] was over 100 µM and the GI50 [8] was 2.85 µM. For the same compound, the TGI [8] was 7.72 µM, the GI50 [9] was 16.7 µM and the TGI [9] was 80.9 µM. It also gave a GI50 [10] of 56 µM, a TGI [10] of over 100 µM and a GI50 [11] of 6.49 µM. It also gave a TGI [11] of over 100 µM, a GI50 [12] of 7.89 µM and a TGI [12] of over 100 µM. It also gave a GI50 [13] of 26.1 µM, a TGI [13] of over 100 µM and a GI50 [14] of 26.2 µM. For the same compound, the TGI [14] was over 100 µM, the GI50 [15] was 9.47 µM and the TGI [15] was 41.1 µM. It also gave a GI50 [16] of 11.2 µM, a TGI [16] of 23.2 µM and a GI50 [17] of 53.8 µM. It also gave a TGI [17] of over 100 µM, a GI50 [18] of 67.8 µM and a TGI [18] of over 100 µM. The GI50 [19] was 3.31 µM, the TGI [19] was 16.1 µM and the GI50 [20] was 24.6 µM. The TGI [20] was over 100 µM, the GI50 [21] was 69.4 µM and the TGI [21] was over 100 µM. For the same compound, the GI50 [22] was 0.299 µM, the TGI [22] was 43.2 µM and the GI50 [23] was 19.1 µM. The TGI [23] was over 100 µM, the GI50 [24] was 61.9 µM and the TGI [24] was over 100 µM. The GI50 [25] was 3.5 µM, the TGI [25] was 19.2 µM and the GI50 [26] was 53.5 µM. It also gave a TGI [26] of over 100 µM, a GI50 [27] of 23.6 µM and a TGI [27] of over 100 µM. For the same compound, the GI50 [28] was 6.49 µM, the TGI [28] was over 100 µM and the GI50 [29] was 2.87 µM. It also gave a TGI [29] of 11.3 µM, a GI50 [30] of 25.3 µM and a TGI [30] of over 100 µM. For the same compound, the GI50 [31] was 48.5 µM, the TGI [31] was over 100 µM and the GI50 [32] was 2.1 µM. It also gave a TGI [32] of 7.21 µM, a GI50 [33] of 22.3 µM and a TGI [33] of over 100 µM. For the same compound, the GI50 [34] was 18 µM, the TGI [34] was over 100 µM and the GI50 [35] was 55.9 µM. The TGI [35] was over 100 µM, the GI50 [36] was 45.2 µM and the TGI [36] was over 100 µM. For the same compound, the GI50 [37] was 35.8 µM, the TGI [37] was over 100 µM and the GI50 [38] was 19.7 µM. The TGI [38] was over 100 µM, the GI50 [39] was 17.8 µM and the TGI [39] was 67.4 µM. The GI50 [40] was 15.1 µM, the TGI [40] was over 100 µM and the GI50 [41] was 8.39 µM. It also gave a TGI [41] of 23.1 µM, a GI50 [42] of 10.8 µM and a TGI [42] of 57.2 µM. For the same compound, the GI50 [43] was 10.9 µM, the TGI [43] was 24.9 µM and the GI50 [44] was 4.51 µM. It also gave a TGI [44] of over 100 µM, a GI50 [45] of 10.9 µM and a TGI [45] of 38.1 µM. For the same compound, the GI50 [46] was 20.7 µM, the TGI [46] was over 100 µM and the GI50 [47] was 16.2 µM. It also gave a TGI [47] of over 100 µM, a GI50 [48] of 3.19 µM and a TGI [48] of over 100 µM. It also gave a GI50 [49] of 14.2 µM, a TGI [49] of 50.9 µM and a GI50 [50] of 29.2 µM. It also gave a TGI [50] of over 100 µM, a GI50 [51] of 10.4 µM and a TGI [51] of 53.9 µM. For the same compound, the GI50 [52] was 15.7 µM, the TGI [52] was 61.4 µM and the GI50 [53] was 23.6 µM. For the same compound, the TGI [53] was 95 µM.
